Test results: patent US20140213513A1 (Sanofi, priority 2012, published 2014)
≈ marks a conversion by molar mass, not a printed value. Where two headings read alike, the source gives them in different places. *1 amine or outer side, *2 acyl side, *3 side chain or, on linkers, in order; H or OH if unused. Where a SMILES comes first, the peptide text is derived from it. Side-chain parts run from the residue outwards. [ ]: non-standard residue; d: D form. The star is where a group is joined. γGlu = O=C(O)[C@H](CCC(=O)[*:2])N[*:1]; Stearoyl = CCCCCCCCCCCCCCCCCC(=O)*; Palmitoyl = CCCCCCCCCCCCCCCC(=O)*; Aib = CC(C)(N)C(=O)O

How the values were obtained:
[1] = molecular target: T1, human GLP-1 receptor (hGLP-1 R) (Homo sapiens, UniProt P43220); assay: cAMP response of HEK-293 cells stably expressing human GLP-1 receptor (HTRF); assay type: cell-based; conditions: Table 7; cAMP formation
T1 construct: expressed in transfected cells
Procedure, shortened: (§1)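 HTRF read-out of cellular cAMP after 30 min compound exposure at room temperature. Accutase-detached cells were suspended at 400000 cells/ml in HBSS buffer containing 20 mM HEPES, 0.1% BSA and 2 mM IBMX phosphodiesterase inhibitor.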

[2] = molecular target: T2, human GIP receptor (hGIP R) (Homo sapiens, UniProt P48546); assay: cAMP response of HEK-293 cells stably expressing human GIP receptor (HTRF); assay type: cell-based; conditions: Table 7; cAMP formation
T2 construct: expressed in transfected cells
T2 sequence (P48546 22-466): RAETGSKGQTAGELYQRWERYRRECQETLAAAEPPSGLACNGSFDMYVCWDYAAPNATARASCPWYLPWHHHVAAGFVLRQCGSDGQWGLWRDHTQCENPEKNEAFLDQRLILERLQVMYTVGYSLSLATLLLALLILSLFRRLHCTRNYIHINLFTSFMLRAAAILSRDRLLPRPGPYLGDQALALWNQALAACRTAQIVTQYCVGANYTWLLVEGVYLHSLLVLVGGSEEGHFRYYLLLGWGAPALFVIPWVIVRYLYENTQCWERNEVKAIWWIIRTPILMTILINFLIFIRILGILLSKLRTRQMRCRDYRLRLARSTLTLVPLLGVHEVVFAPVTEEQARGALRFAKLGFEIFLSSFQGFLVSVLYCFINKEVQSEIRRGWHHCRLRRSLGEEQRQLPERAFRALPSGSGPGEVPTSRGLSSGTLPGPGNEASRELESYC
Procedure, shortened: as §1

[3] = molecular target: T3, human glucagon receptor (hGLUC R) (Homo sapiens, UniProt P47871); assay: cAMP response of HEK-293 cells stably expressing human glucagon receptor (HTRF); assay type: cell-based; conditions: Table 7; cAMP formation
T3 construct: expressed in transfected cells
Procedure, shortened: as §1

[4] = Solubility testing in buffer (HPLC-UV of supernatant); assay type: physicochemical
[5] = pH 4.5, target concentration 1.0 mg/mL, read-out: Solubility (pH 4.5)
[6] = pH 7.4, target concentration 1.0 mg/mL, read-out: Solubility (pH 7.4)

T1 sequence (P43220 24-463): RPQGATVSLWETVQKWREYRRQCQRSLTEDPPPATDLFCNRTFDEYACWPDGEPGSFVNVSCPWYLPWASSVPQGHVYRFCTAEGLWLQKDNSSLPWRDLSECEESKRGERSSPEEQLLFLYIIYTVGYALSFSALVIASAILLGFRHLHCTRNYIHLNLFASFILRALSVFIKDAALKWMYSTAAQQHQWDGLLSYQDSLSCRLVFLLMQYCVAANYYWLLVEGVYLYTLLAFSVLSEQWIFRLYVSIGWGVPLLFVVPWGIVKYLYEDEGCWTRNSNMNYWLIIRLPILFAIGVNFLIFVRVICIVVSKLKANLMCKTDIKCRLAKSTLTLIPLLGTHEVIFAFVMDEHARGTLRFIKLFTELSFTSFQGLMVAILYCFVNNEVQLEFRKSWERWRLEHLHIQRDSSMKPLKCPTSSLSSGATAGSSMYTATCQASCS
T3 sequence (P47871 26-477): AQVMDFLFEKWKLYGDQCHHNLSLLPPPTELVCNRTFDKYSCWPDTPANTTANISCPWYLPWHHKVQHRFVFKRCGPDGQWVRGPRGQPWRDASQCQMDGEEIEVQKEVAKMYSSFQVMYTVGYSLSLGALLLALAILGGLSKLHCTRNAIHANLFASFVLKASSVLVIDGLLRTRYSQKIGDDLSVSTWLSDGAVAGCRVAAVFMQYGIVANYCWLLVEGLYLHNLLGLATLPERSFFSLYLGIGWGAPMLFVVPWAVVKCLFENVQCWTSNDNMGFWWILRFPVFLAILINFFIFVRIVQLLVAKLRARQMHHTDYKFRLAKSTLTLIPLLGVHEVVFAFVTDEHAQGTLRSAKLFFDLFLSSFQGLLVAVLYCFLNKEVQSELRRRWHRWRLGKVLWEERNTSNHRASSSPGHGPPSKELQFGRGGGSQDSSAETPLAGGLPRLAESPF

With `CCCCCCCCCCCCCCCC(=O)N[C@@H](CCC(=O)NCCCC[C@H](NC(=O)[C@H](CCC(N)=O)NC(=O)[C@H](CCCCN)NC(=O)[C@H](CO)NC(=O)[C@H](CC(C)C)NC(=O)[C@H](CC(=O)O)NC(=O)[C@H](CO)NC(=O)[C@@H](NC(=O)[C@H](Cc1ccccc1)NC(=O)[C@@H](NC(=O)CNC(=O)[C@H](CCC(=O)O)NC(=O)C(C)(C)NC(=O)[C@@H](N)Cc1ccc(O)cc1)[C@@H](C)O)[C@@H](C)O)C(=O)N[C@@H](CCC(=O)O)C(=O)N[C@@H](CCCCN)C(=O)N[C@@H](CCC(=O)O)C(=O)N[C@@H](C)C(=O)N[C@@H](C)C(=O)NC(C)(C)C(=O)N[C@@H](CCC(=O)O)C(=O)N[C@@H](Cc1ccccc1)C(=O)N[C@H](C(=O)N[C@@H](CCC(=O)O)C(=O)N[C@@H](Cc1c[nH]c2ccccc12)C(=O)N[C@@H](CC(C)C)C(=O)N[C@@H](CCCCN)C(=O)N[C@@H](C)C(=O)NCC(=O)NCC(=O)N1CCC[C@H]1C(=O)N[C@@H](CO)C(=O)N[C@@H](CO)C(=O)NCC(=O)N[C@@H](C)C(=O)N1CCC[C@H]1C(=O)N1CCC[C@H]1C(=O)N1CCC[C@H]1C(=O)N[C@@H](CO)C(N)=O)[C@@H](C)CC)C(=O)O` [SEQ ID NO: 17, Y-Aib-E-G-T-F-T-S-D-L-S-K-Q-K(yE-x53)-E-K-E-A-A-Aib-E-F-I-E-W-L-K-A-G-G-P-S-S-G-A-P-P-P-S-NH2] (H-Y[Aib]EGTFTSDLSKQK([γGlu-Palmitoyl])EKEAA[Aib]EFIEWLKAGGPSSGAPPPS-NH2) as the compound, how does the EC50 [1] read?
The EC50 was 5.2 pM.

And the EC50 [2]?
Its EC50 is 8.3 pM.

What about the EC50 [3] of the same compound?
The EC50 was 21000 pM.

And the solubility at 2 h [4, 5]?
Its solubility at 2 h is greater than 1000 µg/mL.

And the solubility at 2 h [4, 6]?
Its solubility at 2 h is greater than 1000 µg/mL.

For `CCCCCCCCCCCCCCCC(=O)N[C@@H](CCC(=O)NCCCC[C@H](NC(=O)[C@H](CCC(N)=O)NC(=O)[C@H](CCCCN)NC(=O)[C@H](CO)NC(=O)[C@H](CC(C)C)NC(=O)[C@H](CC(=O)O)NC(=O)[C@H](CO)NC(=O)[C@@H](NC(=O)[C@H](Cc1ccccc1)NC(=O)[C@@H](NC(=O)CNC(=O)[C@H](CCC(N)=O)NC(=O)C(C)(C)NC(=O)[C@@H](N)Cc1ccc(O)cc1)[C@@H](C)O)[C@@H](C)O)C(=O)N[C@@H](CCC(=O)O)C(=O)N[C@@H](CO)C(=O)N[C@@H](CCCCN)C(=O)N[C@@H](C)C(=O)N[C@@H](C)C(=O)N[C@@H](CCC(N)=O)C(=O)N[C@@H](CCC(=O)O)C(=O)N[C@@H](Cc1ccccc1)C(=O)N[C@H](C(=O)N[C@@H](CCC(=O)O)C(=O)N[C@@H](Cc1c[nH]c2ccccc12)C(=O)N[C@@H](CC(C)C)C(=O)N[C@@H](CCCCN)C(=O)N[C@@H](C)C(=O)NCC(=O)NCC(=O)N1CCC[C@H]1C(=O)N[C@@H](CO)C(=O)N[C@@H](CO)C(=O)NCC(=O)N[C@@H](C)C(=O)N1CCC[C@H]1C(=O)N1CCC[C@H]1C(=O)N1CCC[C@H]1C(=O)N[C@@H](CO)C(N)=O)[C@@H](C)CC)C(=O)O` [SEQ ID NO: 40, Y-Aib-Q-G-T-F-T-S-D-L-S-K-Q-K(yE-x53)-ESKAAQEFIEWLKAGGPSSGAPPPS-NH2] (H-Y[Aib]QGTFTSDLSKQK([γGlu-Palmitoyl])ESKAAQEFIEWLKAGGPSSGAPPPS-NH2), which EC50 [1] is on record?
The EC50 was 5.5 pM.

What about the EC50 [2] of the same compound?
Its EC50 is 53.6 pM.

And the EC50 [3]?
Its EC50 is 22.6 pM.

What about the solubility at 2 h [4, 5] of the same compound?
The solubility at 2 h was 986 µg/mL (≈ 220 µM).

And the solubility at 2 h [4, 6]?
The solubility at 2 h was 993 µg/mL (≈ 222 µM).

Which EC50 [1] does the source give for `CCCCCCCCCCCCCCCC(=O)N[C@@H](CCC(=O)NCCCC[C@H](NC(=O)[C@H](CCC(N)=O)NC(=O)[C@@H](NC(=O)[C@H](CO)NC(=O)[C@H](CC(C)C)NC(=O)[C@H](CC(=O)O)NC(=O)[C@H](CO)NC(=O)[C@@H](NC(=O)[C@H](Cc1ccccc1)NC(=O)[C@@H](NC(=O)CNC(=O)[C@H](CCC(N)=O)NC(=O)C(C)(C)NC(=O)[C@@H](N)Cc1ccc(O)cc1)[C@@H](C)O)[C@@H](C)O)[C@@H](C)CC)C(=O)N[C@@H](CCC(=O)O)C(=O)N[C@@H](CCCCN)C(=O)N[C@@H](CCCNC(=N)N)C(=O)N[C@@H](C)C(=O)N[C@H](C(=O)NC(C)(C)C(=O)N[C@@H](CC(C)C)C(=O)N[C@@H](Cc1ccccc1)C(=O)N[C@H](C(=O)N[C@@H](CCC(=O)O)C(=O)N[C@@H](Cc1c[nH]c2ccccc12)C(=O)N[C@@H](CC(C)C)C(=O)N[C@@H](CCCCN)C(=O)N[C@@H](C)C(=O)NCC(=O)NCC(=O)N1CCC[C@H]1C(=O)N[C@@H](CO)C(=O)N[C@@H](CO)C(=O)NCC(=O)N[C@@H](C)C(=O)N1CCC[C@H]1C(=O)N1CCC[C@H]1C(=O)N1CCC[C@H]1C(=O)N[C@@H](CO)C(N)=O)[C@@H](C)CC)C(C)C)C(=O)O` [SEQ ID NO: 24, Y-Aib-Q-G-T-F-T-S-D-L-S-I-Q-K(yE-x53)-E-K-R-A-V-Aib-L-F-I-E-W-L-K-A-G-G-P-S-S-G-A-P-P-P-S-NH2] (H-Y[Aib]QGTFTSDLSIQK([γGlu-Palmitoyl])EKRAV[Aib]LFIEWLKAGGPSSGAPPPS-NH2) here?
The EC50 was 19.2 pM.

And the EC50 [2]?
The EC50 was 10.4 pM.

And the EC50 [3]?
Its EC50 is 284 pM.

What about the solubility at 2 h [4, 5] of the same compound?
The solubility at 2 h was greater than 1000 µg/mL.

And the solubility at 2 h [4, 6]?
Its solubility at 2 h is 976 µg/mL (≈ 217 µM).

Which EC50 [1] does the source give for `CCCCCCCCCCCCCCCCCC(=O)N[C@@H](CCC(=O)NCCCC[C@H](NC(=O)[C@H](CCC(N)=O)NC(=O)[C@@H](NC(=O)[C@H](CO)NC(=O)[C@H](CC(C)C)NC(=O)[C@H](CC(=O)O)NC(=O)[C@H](CO)NC(=O)[C@@H](NC(=O)[C@H](Cc1ccccc1)NC(=O)[C@@H](NC(=O)CNC(=O)[C@H](CCC(N)=O)NC(=O)C(C)(C)NC(=O)[C@@H](N)Cc1ccc(O)cc1)[C@@H](C)O)[C@@H](C)O)[C@@H](C)CC)C(=O)N[C@@H](CC(=O)O)C(=O)N[C@@H](CCC(=O)O)C(=O)N[C@@H](CCC(N)=O)C(=O)N[C@@H](CCCNC(=N)N)C(=O)N[C@@H](C)C(=O)N[C@@H](CCCCN)C(=O)N[C@@H](CCC(=O)O)C(=O)N[C@@H](Cc1ccccc1)C(=O)N[C@H](C(=O)N[C@@H](CCC(=O)O)C(=O)N[C@@H](Cc1c[nH]c2ccccc12)C(=O)N[C@@H](CC(C)C)C(=O)N[C@@H](CCCCN)C(=O)N[C@@H](C)C(=O)NCC(=O)NCC(=O)N1CCC[C@H]1C(=O)N[C@@H](CO)C(=O)N[C@@H](CO)C(=O)NCC(=O)N[C@@H](C)C(=O)N1CCC[C@H]1C(=O)N1CCC[C@H]1C(=O)N1CCC[C@H]1C(=O)N[C@@H](CO)C(N)=O)[C@@H](C)CC)C(=O)O` [SEQ ID NO: 31, Y-Aib-Q-G-T-F-T-S-D-L-S-I-Q-K(yE-x70)-DEQRAKEFIEWLKAGGPSSGAPPPS-NH2] here?
The EC50 was 14.8 pM.

And the EC50 [2]?
The EC50 was 13.1 pM.

And the EC50 [3]?
Its EC50 is 4.1 pM.

With `CCCCCCCCCCCCCCCCCC(=O)N[C@@H](CCC(=O)NCCCC[C@H](NC(=O)[C@H](CCC(N)=O)NC(=O)[C@@H](NC(=O)[C@H](CO)NC(=O)[C@H](CC(C)C)NC(=O)[C@H](CC(=O)O)NC(=O)[C@H](CO)NC(=O)[C@@H](NC(=O)[C@H](Cc1ccccc1)NC(=O)[C@@H](NC(=O)CNC(=O)[C@H](CCC(=O)O)NC(=O)C(C)(C)NC(=O)[C@@H](N)Cc1ccc(O)cc1)[C@@H](C)O)[C@@H](C)O)[C@@H](C)CC)C(=O)N[C@@H](CCC(=O)O)C(=O)N[C@@H](CO)C(=O)N[C@@H](CCCCN)C(=O)N[C@@H](C)C(=O)N[C@@H](C)C(=O)NC(C)(C)C(=O)N[C@@H](CCC(=O)O)C(=O)N[C@@H](Cc1ccccc1)C(=O)N[C@H](C(=O)N[C@@H](CCC(=O)O)C(=O)N[C@@H](Cc1c[nH]c2ccccc12)C(=O)N[C@@H](CC(C)C)C(=O)N[C@@H](CCCCN)C(=O)N[C@@H](C)C(=O)NCC(=O)NCC(=O)N1CCC[C@H]1C(=O)N[C@@H](CO)C(=O)N[C@@H](CO)C(=O)NCC(=O)N[C@@H](C)C(=O)N1CCC[C@H]1C(=O)N1CCC[C@H]1C(=O)N1CCC[C@H]1C(=O)N[C@@H](CO)C(N)=O)[C@@H](C)CC)C(=O)O` [SEQ ID NO: 29, Y-Aib-E-G-T-F-T-S-D-L-S-I-Q-K(yE-x70)-E-S-K-A-A-Aib-E-F-I-E-W-L-K-A-G-G-P-S-S-G-A-P-P-P-S-NH2] (H-Y[Aib]EGTFTSDLSIQK([γGlu-Stearoyl])ESKAA[Aib]EFIEWLKAGGPSSGAPPPS-NH2) as the compound, how does the EC50 [1] read?
The EC50 was 7.2 pM.

And the EC50 [2]?
The EC50 was 13 pM.

What about the EC50 [3] of the same compound?
The EC50 was 15000 pM.
